Results published in US9155741B2, “Methods of using a methylxanthine compound” (The Trustees of the University of Pennsylvania, priority 2008, dated 2015).

Legend:
[1] = test system: cecal ligation and puncture (CLP) sepsis model; test: Survival to 96 hours following CLP or sham operation; type: in vivo, rat
Procedure: (§1) The care of the animals in this study was in accordance with NIH and Institutional Animal Care and Use Committee guidelines. Under isoflurane general anesthesia (up to 2%), 250 g male Sprague-Dawley rats (Charles River, Boston, Mass., USA) underwent cecal ligation and double puncture (CLP) with an 18-gauge needle or sham operation as previously described. All animals were administered 50 ml/kg saline subcutaneously immediately post procedure and every 24 hours. Once awake, animals were given access to food and water ad libitum.
The survival was followed in a separate cohort of animals in this two treatment parallel-design study to 96 hours. Each animal was injected with either caffeine (7.5 mg/kg i.p.) or equal volume of saline (1 mL i.p.) every 24 hours beginning 24 hours following CLP or sham operation. Twenty animals per group were evaluated based on the probability being 80 percent that the study will detect a treatment difference at a two-sided 5.0 percent significance level, if the true hazard ratio is 3.
Data are presented as mean +/− standard deviation. Statistical significance was assessed using ANOVA and post hoc Tukey's test with p<0.05. Statistical significance in the survival study was assessed using Kaplan-Meier survival curves and Mantel-Cox log-rank test.

[2] = test system: isolated rat heart; test: Isolated rat heart preparation (left ventricular function, coronary perfusion, oxygen extraction and consumption) after CLP or sham operation; type: in vivo; conditions: for heart rate: mean +/- SD
Procedure: as §1
Twenty four and 48 hours post-procedure, rats received either an intraperitoneal (i.p) injection of caffeine (7.5 mg/kg, Sigma-Aldrich, St. Louis, Mo.) or equal volume saline (1 mL). Rats were sacrificed one hour after the 48 hour injection following euthanasia with 150 mg/kg of intraperitoneal pentobarbital. Four cohorts were evaluated: SHAM saline, SHAM caffeine, CLP saline, CLP caffeine. N=5 per group. The 24-hour time point was chosen for initial intervention based on the onset of the hypodynamic phase when cardiac function begins to deteriorate and the presence of reversible CcOX inhibition. Studies were performed at the 48-hour time point because this time point represents the late phase of sepsis when cardiac function is markedly depressed and mortality is 75%.
Rats were anesthetized with intraperitoneal pentobarbital (70 mg/kg) and heparinized (1000 U IP). The heart was excised rapidly and the aorta was cannulated. Retrograde perfusion was initiated at constant flow (12 mL/g-min) with a modified Krebs-Henseleit buffer containing (mmol/L) NaCl 120, KCl 4.7, MgSO4 1.2, KH2PO4 1.2, CaCl2 1.25, NaHCO3 25, and glucose. The non-recirculating buffer was maintained at pH 7.4 equilibrated with 95% O2-5% CO2 at 37° C. Isovolumetric left ventricle pressure (LVP) was measured with a transducer connected to a saline-filled latex balloon inserted into the left ventricle through the left atrium. The balloon was inflated to maintain an end-diastolic pressure of 10 mmHg Hearts were immersed in a water-jacketed chamber maintained at 37° C. and allowed to stabilize for 30 minutes.
Heart rate, LVP, the maximum rate of positive and negative change in LVP (+/−dP/dt), and aortic pressure were collected with an analog-to-digital converter system (Power Laboratory 4SP, ADlnstruments, Castle Hill, Australia). […] Measurements were obtained at coronary flow rates (CF) of 12, 10, 8, 6, and 4 mL/g-min Coronary inflow oxygen tension (PaO2) and coronary sinus oxygen tension (PvO2) were measured (GEM Premier 3000, Instrumentation Laboratory, Belgium). Percent O2 extraction was calculated as 100×(PaO2-PvO2/PaO2). Myocardial O2 consumption (MO2) was calculated as CF/g×(PaO2-PvO2)×O2 solubility at 760 mmHg O2 solubility is 24 |il/ml H2O at 37° C. Coronary perfusion pressure was calculated as the difference between mean aortic pressure and LV end-diastolic pressure. Coronary resistance was calculated by dividing perfusion pressure by coronary flow.

[3] = target: T1, cytochrome oxidase (CcOX) (Rattus norvegicus, UniProt P05503); test: Myocardial cytochrome oxidase steady-state kinetic activity in isolated cardiac mitochondria after CLP or sham operation; type: in vivo
T1 construct: from tissue; host or cells: mitochondria isolated from cardiac ventricles of Sprague-Dawley rats
Procedure: as §1
(§2) Twenty four and 48 hours post-procedure, rats received either an intraperitoneal (i.p) injection of caffeine (7.5 mg/kg, Sigma-Aldrich, St. Louis, Mo.) or equal volume saline (1 mL). […] Four cohorts were evaluated: SHAM saline, SHAM caffeine, CLP saline, CLP caffeine. […]
(§3) Cardiac ventricles were harvested and homogenized in ice-cold H medium (70 mM sucrose, 220 mM mannitol, 2.5 mM Hepes, pH 7.4 and 2 mM EDTA). […] Pellets were again resuspended in H medium and mitochondrial protein concentration determined using the method of Lowry.
CcOX kinetics were assayed by the method of Smith in which the rate of oxidation of ferrocytochrome c was measured by following the decrease in absorbance at 550 nm. […] Specific activity was calculated from mean values of three to four measurements using 21.1 mM−cm^−1 as the extinction coefficient of ferrocytochrome c at 550 nm. […]

[4] = test system: cytochrome oxidase subunit I (CcOX-I); test: Immunoblot of steady-state levels of cardiac cytochrome oxidase subunit I; type: in vivo, rat; conditions: between all groups (SHAM/CLP, saline/caffeine), normalized to porin
Procedure: as §1, §2, §3
10 μg samples of mitochondrial protein were subjected to SDS-acrylamide gel electrophoresis and immunoblotting. […] The signal was detected with enhanced chemiluminescence (ECL; Amersham Pharmacia Biotech, Piscataway, N.J., USA), and density was measured using scanning densitometry. Five animals per group per experiment were evaluated.

[5] = CLP caffeine, 12 mL/g-min coronary flow, compared to saline injected sham values (so in the source)
[6] = CLP caffeine, toward saline injected sham values, most flow rates
[7] = sham caffeine vs both CLP groups, all coronary flow rates
[8] = sham caffeine vs saline injected sham, highest flow rates

**Q.** How did the “animals survived to 48 hours” value ([1]; CLP, caffeine 7.5 mg/kg i.p. daily from 24 hours, 48 hours) turn out when `Cn1c(=O)c2c(ncn2C)n(C)c1=O` [caffeine] was run?
**A.** Eighty

**Q.** And the “animals survived to 72 hours” value ([1]; CLP, caffeine 7.5 mg/kg i.p. daily from 24 hours, 72 hours)?
**A.** 55%

**Q.** What about the “animals survived to 96 hours” value ([1]; CLP, caffeine 7.5 mg/kg i.p. daily from 24 hours, 96 hours) of the same molecule?
**A.** 40%

**Q.** What about the mortality ([1]; sham operation, caffeine 7.5 mg/kg i.p. daily, to 96 hours) of the same molecule?
**A.** no mortality

**Q.** And the coronary resistance ([2]; CLP caffeine vs CLP saline)?
**A.** significantly increased

**Q.** What about the coronary perfusion pressure ([2]; CLP caffeine vs CLP saline, 12 mL/g-min coronary flow) of the same molecule?
**A.** significantly increased

**Q.** What about the “left ventricular pressure (LVP)” value ([2]; CLP caffeine vs CLP saline, all flow rates greater than 4 mL/g-min) of the same molecule?
**A.** significantly improved

**Q.** What about the “left ventricular pressure (LVP)” value ([2]; CLP caffeine vs saline injected sham, flow rates except 12 mL/g-min) of the same molecule?
**A.** approached saline injected sham values

**Q.** What about the “left ventricular pressure (LVP)” value ([2]; CLP caffeine vs sham cohorts, 12 mL/g-min coronary flow) of the same molecule?
**A.** significantly lower than both sham cohorts

**Q.** And the coronary perfusion pressure ([2]; CLP caffeine vs sham controls, almost all coronary flow rates)?
**A.** significant reductions

**Q.** What about the myocardial oxygen consumption [2, 5] of the same molecule?
**A.** significantly increased

**Q.** What about the myocardial oxygen extraction [2, 5] of the same molecule?
**A.** significantly increased

**Q.** What about the heart rate ([2]; CLP caffeine) of the same molecule?
**A.** 262+/−11 bpm

**Q.** What about the “+dP/dt” value [2, 6] of the same molecule?
**A.** significantly improved

**Q.** And the “−dP/dt” value [2, 6]?
**A.** significantly improved

**Q.** What about the “left ventricular pressure (LVP)” value ([2]; sham caffeine vs all other groups, highest coronary flow rates) of the same molecule?
**A.** significantly increased

**Q.** And the myocardial oxygen consumption ([2]; sham caffeine vs both CLP cohorts, 12 mL/g-min coronary flow)?
**A.** significantly increased

**Q.** And the “+dP/dt” value [2, 7]?
**A.** significantly increased

**Q.** And the “−dP/dt” value [2, 7]?
**A.** significantly increased

**Q.** And the “+dP/dt” value [2, 8]?
**A.** significantly increased

**Q.** What about the “−dP/dt” value [2, 8] of the same molecule?
**A.** significantly increased

**Q.** What about the coronary resistance ([2]; sham caffeine vs sham saline) of the same molecule?
**A.** significantly decreased

**Q.** And the coronary perfusion pressure ([2]; sham caffeine vs sham saline, highest flow rate)?
**A.** significantly reduced

**Q.** What about the heart rate ([2]; sham caffeine) of the same molecule?
**A.** 276+/−11 bpm

**Q.** What about the “myocardial CcOX kinetic activity normalized to citrate synthase activity” value ([3]; CLP rats, 48 hours, caffeine 7.5 mg/kg i.p. at 24 and 48 hours, vs sham) of the same molecule?
**A.** restored CcOX kinetic activity in CLP rats to sham values

**Q.** And the “myocardial CcOX kinetic activity normalized to citrate synthase activity” value ([3]; sham animals, caffeine injected vs saline injected)?
**A.** no significant difference

**Q.** What about the “steady-state myocardial CcOX I levels” value [4] of the same molecule?
**A.** no significant difference
